In article PMC5962642, “Dynamic imaging of adaptive stress response pathway activation for prediction of drug induced liver injury” (Archives of Toxicology, 2018):

Tested on: Srxn1-GFP (oxidative stress)
Test: HepG2 Srxn1-GFP BAC reporter, live cell confocal imaging (oxidative stress)
Assay type: cell-based, Human
Details: cluster description; reporter not resolved per drug (Srxn1-GFP and/or CHOP-GFP)
Method: (§1) Human hepatoma HepG2 cells were acquired from ATCC (clone HB8065). HepG2 Srxn1, DDIT3 (CHOP), CDKN1A (p21) and ICAM1 BAC GFP reporter cell lines were previously established and characterized (Wink et al. [2017]). HepG2 BAC GFP reporters were maintained and exposed to drugs in DMEM high glucose supplemented with 10% (v/v) FBS, 25 U/mL penicillin and 25 µg/mL streptomycin. The cell lines were used between passage 5 and 25. For live cell imaging, the cells were seeded in Greiner black µ-clear 384 wells plates, at 8000 cells per well.
Accumulation of GFP levels, propodium iodide (PI) and Hoechst staining was monitored using a Nikon TiE2000 confocal laser microscope (lasers 540, 488 and 408 nm), equipped with an automated stage and perfect focus system at 37 °C with humidified atmosphere and 5% CO2/air mixture. All imaging was similar as previously described^5. Each 384-well plate contained one reporter cell line, which was exposed to all the compounds used in the screen at one certain concentration (1, 5, 10, 50 or 100 Cmax); for each concentration at least two replicates were imaged per reporter cell line. For the ICAM1-GFP reporter experiments, cells were first exposed for 8 h to compound only; next, TNFα was added to all wells, up to a final concentration of 10 ng/mL. Directly after TNFα treatment the live cell imaging was started.
Quantitative image analysis was performed with CellProfiler version 2.1.1 (Kamentsky et al. [2011]) with an in house developed CellProfiler module implementing the watershed masked algorithm for segmentation (Yan and Verbeek [2012]; Wink et al. [2017]). Image analysis results were stored as HDF5 files. Data analysis, quality control and graphics were performed using the in house developed R package h5CellProfiler (manuscript in preparation). For each reporter hourly intensity levels of the GFP signal, the nuclear Hoechst33342 intensity levels and at 24 h the PI staining were measured at the single cell level. In addition, cell numbers, nuclei size and cell motility were measured.
GFP intensity cell population means were calculated. In addition, for each plate the cell population mean GFP intensity of the DMSO treated cells was calculated to determine background control values. Per plate, the single cells that had values above the 2X mean, 3X mean were counted resulting in GFP positive fraction measures. For ICAM1, the background control values consisted of DMSO conditions treated with TNFα, and the single cells with values above, as well as below background values were counted. Due to the non-symmetric distribution of ICAM1 cell population GFP intensities, the interquartile range (IQR) was used to count the number of cells 1.5, 2 and 3 times above and below the TNFα IQR control values (Supplemental Fig. 1).
The maximum values over time of the scaled intensity levels and positive GFP fractions were selected for the concentration response curves. These values were fit to a four parameter log-logistic model using the drc package (Ritz et al. [2015]). BMC values were calculated as the concentration at which + 0.25 (and − 0.25 for ICAM1) absolute increase from the initial response values occurred (Fig. 5a).

| Compound | activation of Srxn1-GFP and/or CHOP-GFP (cluster 3) |
| --- | --- |
| CCc1oc2ccccc2c1C(=O)c1cc(Br)c(O)c(Br)c1 [Benzbromarone] | activation of Srxn1-GFP and/or CHOP-GFP |

Same assay, conditions: order of responses in 24 h; 100× C-max printed for nimesulide, rifampicin, oxytetracycline

| Compound | Srxn1-GFP response, time dynamics relative to CHOP-GFP |
| --- | --- |
| CN(C)[C@@H]1C(O)=C(C(N)=O)C(=O)[C@@]2(O)C(O)=C3C(=O)c4c(O)cccc4[C@@](C)(O)[C@H]3[C@H](O)[C@@H]12 [Oxytetracycline] | delayed Srxn1-GFP response |

Tested on: CHOP-GFP (ER stress/UPR response)
Test: HepG2 CHOP-GFP BAC reporter, live cell confocal imaging (ER stress/UPR)
Assay type: cell-based, Human
Details: HepG2 BAC-GFP, 24 h live imaging, 1-100 C-max

| Compound | CHOP-GFP reporter response |
| --- | --- |
| C/C=C(/C)C(=O)O[C@H]1C(C)=C2[C@H]([C@@H]1OC(=O)CCCCCCC)[C@@](C)(OC(C)=O)C[C@H](OC(=O)CCC)[C@@]1(O)[C@H]2OC(=O)[C@@]1(C)O [Thapsigargin] | strong inducers |
| CCc1nn(CCCN2CCN(c3cccc(Cl)c3)CC2)c(=O)n1CCOc1ccccc1 [Nefazodone] | CHOP-GFP activation |
| CN1CCN(C2=Nc3cc(Cl)ccc3Nc3ccccc32)CC1 [Clozapine] | CHOP-GFP activation |
| O=C1CN(/N=C/c2ccc([N+](=O)[O-])o2)C(=O)N1 [Nitrofurantoin] | CHOP-GFP activation |

Same assay, conditions: order of responses in 24 h; 100× C-max printed for nimesulide, rifampicin, oxytetracycline

| Compound | CHOP-GFP response, time dynamics relative to Srxn1-GFP |
| --- | --- |
| CN(C)[C@@H]1C(O)=C(C(N)=O)C(=O)[C@@]2(O)C(O)=C3C(=O)c4c(O)cccc4[C@@](C)(O)[C@H]3[C@H](O)[C@@H]12 [Oxytetracycline] | initial CHOP-GFP response |

Tested on: p21-GFP (p53-mediated DNA damage-related response)
Test: HepG2 p21-GFP BAC reporter, live cell confocal imaging (DNA damage)
Assay type: cell-based, Human
Details: 24 h live imaging, 1-100 C-max
Method: as §1
Accumulation of GFP levels, propodium iodide (PI) and Hoechst staining was monitored using a Nikon TiE2000 confocal laser microscope (lasers 540, 488 and 408 nm), equipped with an automated stage and perfect focus system at 37 °C with humidified atmosphere and 5% CO2/air mixture. All imaging was similar as previously described^5. […]
Quantitative image analysis was performed with CellProfiler version 2.1.1 (Kamentsky et al. [2011]) with an in house developed CellProfiler module implementing the watershed masked algorithm for segmentation (Yan and Verbeek [2012]; Wink et al. [2017]). […] For each reporter hourly intensity levels of the GFP signal, the nuclear Hoechst33342 intensity levels and at 24 h the PI staining were measured at the single cell level. In addition, cell numbers, nuclei size and cell motility were measured.
GFP intensity cell population means were calculated. In addition, for each plate the cell population mean GFP intensity of the DMSO treated cells was calculated to determine background control values. Per plate, the single cells that had values above the 2X mean, 3X mean were counted resulting in GFP positive fraction measures. For ICAM1, the background control values consisted of DMSO conditions treated with TNFα, and the single cells with values above, as well as below background values were counted. […]

| Compound | p21-GFP reporter response |
| --- | --- |
| COc1cc([C@@H]2c3cc4c(cc3[C@@H](O[C@@H]3O[C@@H]5CO[C@@H](C)O[C@H]5[C@H](O)[C@H]3O)[C@H]3COC(=O)[C@H]23)OCO4)cc(OC)c1O [Etoposide] | strong inducers |

Tested on: ICAM1-GFP (NF-κB-mediated inflammatory signaling)
Test: HepG2 ICAM1-GFP BAC reporter, TNFα-induced, live cell confocal imaging
Assay type: cell-based, Human
Details: HepG2 BAC-GFP, 8 h compound then TNFα 10 ng/mL, 24 h live imaging, 1-100 C-max
Method: Human hepatoma HepG2 cells were acquired from ATCC (clone HB8065). HepG2 Srxn1, DDIT3 (CHOP), CDKN1A (p21) and ICAM1 BAC GFP reporter cell lines were previously established and characterized (Wink et al. [2017]). […] The cell lines were used between passage 5 and 25. For live cell imaging, the cells were seeded in Greiner black μ-clear 384 wells plates, at 8000 cells per well. […] All imaging was similar as previously described^5. […] Directly after TNFα treatment the live cell imaging was started. Quantitative image analysis was performed with CellProfiler version 2.1.1 ([…] et al. [2011]) with an in house developed CellProfiler module implementing the watershed masked algorithm for segmentation (Yan and Verbeek [2012]; Wink et al. [2017]). Image analysis results were stored as HDF5 files. Data analysis, quality control and graphics were performed using the in house developed R package h5CellProfiler (manuscript in preparation). For each reporter hourly intensity levels of the GFP signal, the nuclear Hoechst33342 intensity levels and at 24 h the PI staining were measured at the single cell level. In addition, cell numbers, nuclei size and cell motility were measured. GFP intensity cell population means were calculated. In addition, for each plate the cell population mean GFP intensity of the DMSO treated cells was calculated to determine background control values. Per plate, the single cells that had values above the 2X mean, 3X mean were counted resulting in GFP positive fraction measures. For ICAM1, the background control values consisted of DMSO conditions treated with TNFα, and the single cells with values above, as well as below background values were counted. […] Linear regression was applied with respect to time to quantify treatment effects on a plate-to-plate basis to quantify cell speed, nuclear size, Hoechst nuclear intensity and cell numbers. […] The maximum values over time of the scaled intensity levels and positive GFP fractions were selected for the concentration response curves. These values were fit to a four parameter log-logistic model using the drc package (Ritz et al. [2015]). BMC values were calculated as the concentration at which + 0.25 (and - 0.25 for ICAM1) absolute increase from the initial response values occurred (Fig. 5a).

| Compound | modulation of TNFα-induced ICAM1-GFP response |
| --- | --- |
| CCc1nn(CCCN2CCN(c3cccc(Cl)c3)CC2)c(=O)n1CCOc1ccccc1 [Nefazodone] | strong ICAM1-GFP suppression |
| CN1CCN(C2=Nc3cc(Cl)ccc3Nc3ccccc32)CC1 [Clozapine] | strong ICAM1-GFP suppression |
| CCc1oc2ccccc2c1C(=O)c1cc(Br)c(O)c(Br)c1 [Benzbromarone] | mild ICAM1-GFP suppression |
| O=C1CN(/N=C/c2ccc([N+](=O)[O-])o2)C(=O)N1 [Nitrofurantoin] | strong ICAM1-GFP suppression |

Tested on: not given
Test: not given
Details: C-max obtained from FDA or literature; ref per compound (FDA, Dailymed, Xu, O’Brien, Khetani, Regenthal, Gustafsson, Dawson, Ogutu, Patel, Schmidt, Ravic, Keisu, Hu, Wagner); cited from earlier work

| Compound | Cmax |
| --- | --- |
| CCc1nn(CCCN2CCN(c3cccc(Cl)c3)CC2)c(=O)n1CCOc1ccccc1 [Nefazodone] | 3.95 µM |
| CN1CCN(C2=Nc3cc(Cl)ccc3Nc3ccccc32)CC1 [Clozapine] | 2.44 µM |
| CN(C)[C@@H]1C(O)=C(C(N)=O)C(=O)[C@@]2(O)C(O)=C3C(=O)c4c(O)cccc4[C@@](C)(O)[C@H]3[C@H](O)[C@@H]12 [Oxytetracycline] | 3.26 µM |
| CCc1oc2ccccc2c1C(=O)c1cc(Br)c(O)c(Br)c1 [Benzbromarone] | 4.34 µM |
| O=C1CN(/N=C/c2ccc([N+](=O)[O-])o2)C(=O)N1 [Nitrofurantoin] | 6 µM |

Tested on: not given
Test: not given
Details: FDA DILI labeling; ref Chen et al. [2016]; cited from earlier work

| Compound | DILI con. (DILI-concern labeling) |
| --- | --- |
| CCc1nn(CCCN2CCN(c3cccc(Cl)c3)CC2)c(=O)n1CCOc1ccccc1 [Nefazodone] | Most-DC |
| CN(C)[C@@H]1C(O)=C(C(N)=O)C(=O)[C@@]2(O)C(O)=C3C(=O)c4c(O)cccc4[C@@](C)(O)[C@H]3[C@H](O)[C@@H]12 [Oxytetracycline] | Amb.-DC |
| CCc1oc2ccccc2c1C(=O)c1cc(Br)c(O)c(Br)c1 [Benzbromarone] | Most-DC |
| O=C1CN(/N=C/c2ccc([N+](=O)[O-])o2)C(=O)N1 [Nitrofurantoin] | Most-DC |

Same assay, conditions: FDA labeling in eight classes of hepatotoxicity; ref Chen et al. [2016]; cited from earlier work

| Compound | Hepa. (hepatotoxicity class) |
| --- | --- |
| CCc1nn(CCCN2CCN(c3cccc(Cl)c3)CC2)c(=O)n1CCOc1ccccc1 [Nefazodone] | 8 |
| CN(C)[C@@H]1C(O)=C(C(N)=O)C(=O)[C@@]2(O)C(O)=C3C(=O)c4c(O)cccc4[C@@](C)(O)[C@H]3[C@H](O)[C@@H]12 [Oxytetracycline] | 2 |
| CCc1oc2ccccc2c1C(=O)c1cc(Br)c(O)c(Br)c1 [Benzbromarone] | 8 |
| O=C1CN(/N=C/c2ccc([N+](=O)[O-])o2)C(=O)N1 [Nitrofurantoin] | 8 |

Tested on: not given
Test: not given
Details: ref livertox.nih.gov database; cited from earlier work

| Compound | Metab (metabolic potential) |
| --- | --- |
| COc1cc([C@@H]2c3cc4c(cc3[C@@H](O[C@@H]3O[C@@H]5CO[C@@H](C)O[C@H]5[C@H](O)[C@H]3O)[C@H]3COC(=O)[C@H]23)OCO4)cc(OC)c1O [Etoposide] | YES |
| CCc1nn(CCCN2CCN(c3cccc(Cl)c3)CC2)c(=O)n1CCOc1ccccc1 [Nefazodone] | YES |
| CN1CCN(C2=Nc3cc(Cl)ccc3Nc3ccccc32)CC1 [Clozapine] | YES |
| CCc1oc2ccccc2c1C(=O)c1cc(Br)c(O)c(Br)c1 [Benzbromarone] | YES |
| O=C1CN(/N=C/c2ccc([N+](=O)[O-])o2)C(=O)N1 [Nitrofurantoin] | YES |
